The assay addresses T1, human S1P1 receptor (Homo sapiens, UniProt P21453).
T1 construct: expressed in transfected cells; membranes from cells stably expressing the S1P1 receptor
In words: GTP γ35S binding assay for S1P1 activity. The note with it: membranes of cells stably expressing the S1P1 receptor, test compounds 0.08 to 5,000 nM, 30 min at 25° C. It counts as biochemical. As for the experimental part: Compounds were synthesized and tested for S1P1 activity using the GTP γ^35S binding assay. These compounds may be assessed for their ability to activate or block activation of the human S1P1 receptor in cells stably expressing the S1P1 receptor.
GTP γ^35S binding was measured in the medium containing (mM) HEPES 25, pH 7.4, MgCl2 10, NaCl 100, dithiothreitol 0.5, digitonin 0.003%, 0.2 nM GTP γ^35S, and 5 μg membrane protein in a volume of 150 μl. Test compounds were included in the concentration range from 0.08 to 5,000 nM unless indicated otherwise. Membranes were incubated with 100 μM 5′-adenylylimidodiphosphate for 30 min, and subsequently with 10 μM GDP for 10 min on ice. Drug solutions and membrane were mixed, and then reactions were initiated by adding GTP γ^35S and continued for 30 min at 25° C. Reaction mixtures were filtered over Whatman GF/B filters under vacuum, and washed three times with 3 mL of ice-cold buffer (HEPES 25, pH7.4, MgCl2 10 and NaCl 100). Filters were dried and mixed with scintillant, and counted for ^35S activity using a β-counter. Agonist-induced GTP γ^35S binding was obtained by subtracting that in the absence of agonist. Binding data were analyzed using a non-linear regression method. In case of antagonist assay, the reaction mixture contained 10 nM […] in the presence of test antagonist at concentrations ranging from 0.08 to 5000 nM.
T1 sequence (P21453 whole entry): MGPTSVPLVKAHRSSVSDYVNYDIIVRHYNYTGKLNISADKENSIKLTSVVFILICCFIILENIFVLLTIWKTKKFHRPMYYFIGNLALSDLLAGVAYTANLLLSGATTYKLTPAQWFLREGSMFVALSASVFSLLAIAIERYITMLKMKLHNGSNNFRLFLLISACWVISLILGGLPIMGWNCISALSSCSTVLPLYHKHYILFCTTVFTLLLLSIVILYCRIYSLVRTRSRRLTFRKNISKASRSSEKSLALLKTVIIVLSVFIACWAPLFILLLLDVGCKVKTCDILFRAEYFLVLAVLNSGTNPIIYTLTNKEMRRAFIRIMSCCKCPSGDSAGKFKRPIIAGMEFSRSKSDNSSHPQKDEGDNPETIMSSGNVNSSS
For the compound `CCCCC(CCCOc1ccc(CN2CC(C(=O)O)C2)cc1C)Cc1ccc(C)c(C)c1` (stereo not drawn) [Compound 7, 1-(4-{[4-(3,4-Dimethylbenzyl)octyl]oxy}-3-dimethylbenzyl)azetidine-3-carboxylic acid], the EC50 – broadly, the concentration needed to bring the measured effect to its halfway point – worked out at 5.8 nM.
The same measure for `CCCCC(CCCOc1ccc(CN2CC(C(=O)O)C2)cc1Cl)Cc1ccc(C)c(C)c1` (stereo not drawn) [1-(3-chloro-4-{[4-(3,4-dimethylbenzyl)octyl]oxy}benzyl)azetidine-3-carboxylic acid]: 2.71 nM; for `CCC(CCCOc1ccc(CN2CC(C(=O)O)C2)cc1)Cc1ccc(C)c(C)c1` (stereo not drawn) [Compound 4, 1-(4-{[4-(3,4-Dimethylbenzyl)hexyl]oxy}benzyl)azetidine-3-carboxylic acid]: 69.2 nM; for `CCCCCC(CCCOc1ccc(CN2CC(C(=O)O)C2)cc1Cl)Cc1ccc(C)c(C)c1` (stereo not drawn) [Compound 13, 1-(3-Chloro-4-{[4-(3,4-dimethylbenzyl)nonyl]oxy}benzyl)azetidine-3-carboxylic acid]: 13.8 nM.
In turn, `CCCCC(CCCOc1c(C)cc(CN2CC(C(=O)O)C2)cc1C)Cc1ccc(C)c(C)c1` (stereo not drawn) [Compound 6, 1-(4-{[4-(3,4-Dimethylbenzyl)octyl]oxy}-3,5-dimethylbenzyl)azetidine-3-carboxylic acid] registered a 50% effective concentration (EC50) of 11.7 nM.
Turning to `CCCC(CCCOc1ccc(CN2CC(C(=O)O)C2)cc1)Cc1ccc(C)c(C)c1` (stereo not drawn) [Compound 3, 1-(4-{[4-(3,4-Dimethylbenzyl)heptyl]oxy}benzyl)azetidine-3-carboxylic acid], the EC50 worked out at 6.51 nM.
The same measure for `CCCC(CCCOc1ccc(CN2CC(C(=O)O)C2)cc1C)Cc1ccc(C)c(C)c1` (stereo not drawn) [Compound 16, 1-(4-{[4-(3,4-Dimethylbenzyl)heptyl]oxy}-3-methylbenzyl)azetidine-3-carboxylic acid]: 21.2 nM; for `CCCCCC(CCCOc1ccc(CN2CC(C(=O)O)C2)cc1)Cc1ccc(C)c(C)c1` (stereo not drawn) [Compound 1, 1-(4-{[4-(3,4-Dimethylbenzyl)nonyl]oxy}benzyl)azetidine-3-carboxylic acid]: 6.04 nM; for `CCCC(CCCOc1c(C)cc(CN2CC(C(=O)O)C2)cc1C)Cc1ccc(C)c(C)c1` (stereo not drawn) [1-(4-{[4-(3,4-dimethylbenzyl)heptyl]oxy}-3,5-dimethylbenzyl)azetidine-3-carboxylic acid]: 2.05 nM.
Next, `CCCCCCC(CCCOc1ccc(CN2CC(C(=O)O)C2)cc1)Cc1ccc(C)c(C)c1` (stereo not drawn) [Compound 5, 1-(4-{[4-(3,4-Dimethylbenzyl)decyl]oxy}benzyl)azetidine-3-carboxylic acid]: 102 nM; `CCCCC(CCCOc1ccc(CN2CC(C(=O)O)C2)cc1)Cc1ccc(C)c(C)c1` (stereo not drawn) [Compound 2, 1-(4-{[4-(3,4-Dimethylbenzyl)octyl]oxy}benzyl)azetidine-3-carboxylic acid]: 1.03 nM.
With `CCCCC(CCCOc1ccc(CN2CC(C(=O)O)C2)cc1Br)Cc1ccc(C)c(C)c1` (stereo not drawn) [Compound 8, 1-(3-Bromo-4-{[4-(3,4-dimethylbenzyl)octyl]oxy}benzyl)azetidine-3-carboxylic acid], the EC50 amounted to 6.54 nM.
`CCCC(CCCOc1ccc(CN2CC(C(=O)O)C2)cc1Cl)Cc1ccc(C)c(C)c1` (stereo not drawn) [Compound 14, 1-(3-Chloro-4-{[4-(3,4-dimethylbenzyl)heptyl]oxy}benzyl)azetidine-3-carboxylic acid]: a half-maximal response (EC50) required 11.6 nM.
As to `CCCCC(CCCOc1ccc(CN2CC(C(=O)O)C2)cc1F)Cc1ccc(C)c(C)c1` (stereo not drawn) [1-(4-{[4-(3,4-dimethylbenzyl)octyl]oxy}-3-fluorobenzyl)azetidine-3-carboxylic acid], it took 5.42 nM to reach a half-maximal effect (EC50).
For `CCCCC(CCCOc1c(F)cc(CN2CC(C(=O)O)C2)cc1OC)Cc1ccc(C)c(C)c1` (stereo not drawn) [1-(4-{[4-(3,4-dimethylbenzyl)octyl]oxy}-3-fluoro-5-methoxybenzyl)azetidine-3-carboxylic acid], the EC50 was determined as 2.91 nM.
